# According to paper PMC6882823, “Partitioning of amino acids and proteins into decanol using phase transfer agents towards understanding life in non-polar liquids” (Scientific Reports, 2019):
# Assays:
# [1] = parameters: method as in PMID 7108955; conditions: amino acid residue; positive scores = higher hydrophobicity; cited from earlier work
# [2] = Water/decanol phase partitioning with or without phase transfer agents; assay type: physicochemical
# Protocol: Biomolecules were dissolved in ultrapure water (Millipore EMD, USA), containing decylsulfate and/or DDAB when noted. […] Final concentrations of phase transfer agents (PTAs) and amino acids were generally 10 mM unless noted otherwise for specific experiments. Proteins were generally diluted until their 280 nm absorbance was less than or equal to 1 AU.
# (§1) Equal volumes of water phase (containing the biomolecule and PTA, if added) and decanol were mixed, vortexed for 30 s, then centrifuged for 3 minutes with a mini centrifuge. These samples were prepared in triplicate. Both decanol and aqueous phase were analyzed for biomolecules. Phenylalanine and proteins were analyzed using UV-vis (Hewlett-Packard 8453).
# (§2) HPLC was performed with Cosmosil HILiC column (2.5 µm particle size, 3 × 100 mm; Nacalai USA) at 30 °C with a 1.0 mL/min flow rate, and isocratic elution of 25% 20 mM ammonium acetate, pH 7.5 and 75% acetonitrile (Optima, LC-MS purity, Fisher Scientific). Injection volume was 10 µL. For mass spectra collection, HESI heater temp was 50 °C, with a 4.5 kV spray, and 250 °C capillary temperature in positive ion mode.
# [3] = Potassium ion binding of valinomycin in the decanol phase; conditions: decanol phase after partitioning against 100 mM KCl
# Protocol: Ultra-pure Millipore grade (18.2 MΩ) water, 100 mM KCl or 100 mM AuCl were tested as aqueous phases. In all samples all of the valinomycin was found in the decanol phase (see SI for additional details).
# as §1, §2
molecule,measurement,setting,value
N[C@@H](CCC(=O)O)C(=O)O [glutamic acid],Hydrophathy (hydropathy score of residue type),[1],−3.5
"NCC(=O)O [glycine, Glycine]",Hydrophathy (hydropathy score of residue type),[1],−0.4
"N[C@@H](Cc1ccccc1)C(=O)O [phenylalanine, Phenylalanine]",Hydrophathy (hydropathy score of residue type),[1],2.8
same,"phenylalanine partitioning into decanol, 1:1 PTA to phenylalanine, pH 7","[2]; water/decanol, 10 mM phenylalanine, 1:1 ratio of PTA (DS and DDAB 1:1), pH 7 zwitterionic, UV-vis, n = 3",15%
same,"phenylalanine entering the decanol phase, 1:10 PTA to phenylalanine","[2]; water/decanol, 10 mM phenylalanine, 1:10 ratio of PTA, all pHs (1.5 DS; 7.0 DS and DDAB; 10.0 DDAB), UV-vis, n = 3",about 10%
"Tpol: Taq DNA polymerase, UniProt P19821",Tpol entering the decanol phase,"[2]; water/decanol, no PTA or 5 mM of both DDAB and DS, UV-vis",About 10%
valinomycin [reference compound],valinomycin found in the decanol phase,"[2]; water/decanol, without PTAs, aqueous phase ultra-pure water, 100 mM KCl or 100 mM AuCl, LC-MS and UV 210 nm, three independent partitionings",all
same,ability to bind potassium ions,[3],appeared to retain its biological ability to bind to potassium ions
"Bacteriorhodopsin: a membrane protein, soluble only in amphiphilic systems (protein, UniProt P02945 14-262, looked up) Bacteriorhodopsin: QAQITGRPEWIWLALGTALMGLGTLYFLVKGMGVSDPDAKKFYAITTLVPAIAFTMYLSMLLGYGLTMVPFGGEQNPIYWARYADWLFTTPLLLLDLALLVDADQGTILALVGADGIMIGTGLVGALTKVYSYRFVWWAISTAAMLYILYVLFFGFTSKAESMRPEVASTFKVLRNVTVVLWSAYPVVWLIGSEGAGIVPLNIETLLFMVLDVSAKVGFGLILLRSRAIFGEAEAPEPSAGDGAAATSD",behaviour of bacteriorhodopsin in partitioning experiments,"[2]; water/decanol with DS and DDAB added, visual",aggregated at the interface between the water and oil phase
same,solubility in water and decanol phases,"[2]; without PTAs, appearing as crystals",insoluble in both the water and decanol phases
